Each structure is given as a SMILES string. Converted amounts (≈) assume the structure as drawn.

By inhibition is commonly meant the percentage by which the read-out fell short of the control. As a reminder, the solubility is the dissolved amount per volume that the medium holds.

The target in data set [1] is T1, human wild type-CFTR (Homo sapiens, UniProt P13569). Briefly: Short-circuit current measurement. In kind it is cell-based. Details: expressed in transfected cells. As to conditions: FRT cells expressing human wild type-CFTR; Forskolin 20 μM signal used as 100% activity; read-out: Short-circuit current measurement (EC50) Concentration range. The method in brief: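 FRT monolayers stably carrying human wild-type CFTR were mounted in Ussing chambers; forskolin, compounds and the inhibitor CFTRinh-172 went to apical and basolateral sides. Read-outs were apical membrane current and short-circuit current, recorded at 4 Hz.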
T1 sequence (P13569 whole entry): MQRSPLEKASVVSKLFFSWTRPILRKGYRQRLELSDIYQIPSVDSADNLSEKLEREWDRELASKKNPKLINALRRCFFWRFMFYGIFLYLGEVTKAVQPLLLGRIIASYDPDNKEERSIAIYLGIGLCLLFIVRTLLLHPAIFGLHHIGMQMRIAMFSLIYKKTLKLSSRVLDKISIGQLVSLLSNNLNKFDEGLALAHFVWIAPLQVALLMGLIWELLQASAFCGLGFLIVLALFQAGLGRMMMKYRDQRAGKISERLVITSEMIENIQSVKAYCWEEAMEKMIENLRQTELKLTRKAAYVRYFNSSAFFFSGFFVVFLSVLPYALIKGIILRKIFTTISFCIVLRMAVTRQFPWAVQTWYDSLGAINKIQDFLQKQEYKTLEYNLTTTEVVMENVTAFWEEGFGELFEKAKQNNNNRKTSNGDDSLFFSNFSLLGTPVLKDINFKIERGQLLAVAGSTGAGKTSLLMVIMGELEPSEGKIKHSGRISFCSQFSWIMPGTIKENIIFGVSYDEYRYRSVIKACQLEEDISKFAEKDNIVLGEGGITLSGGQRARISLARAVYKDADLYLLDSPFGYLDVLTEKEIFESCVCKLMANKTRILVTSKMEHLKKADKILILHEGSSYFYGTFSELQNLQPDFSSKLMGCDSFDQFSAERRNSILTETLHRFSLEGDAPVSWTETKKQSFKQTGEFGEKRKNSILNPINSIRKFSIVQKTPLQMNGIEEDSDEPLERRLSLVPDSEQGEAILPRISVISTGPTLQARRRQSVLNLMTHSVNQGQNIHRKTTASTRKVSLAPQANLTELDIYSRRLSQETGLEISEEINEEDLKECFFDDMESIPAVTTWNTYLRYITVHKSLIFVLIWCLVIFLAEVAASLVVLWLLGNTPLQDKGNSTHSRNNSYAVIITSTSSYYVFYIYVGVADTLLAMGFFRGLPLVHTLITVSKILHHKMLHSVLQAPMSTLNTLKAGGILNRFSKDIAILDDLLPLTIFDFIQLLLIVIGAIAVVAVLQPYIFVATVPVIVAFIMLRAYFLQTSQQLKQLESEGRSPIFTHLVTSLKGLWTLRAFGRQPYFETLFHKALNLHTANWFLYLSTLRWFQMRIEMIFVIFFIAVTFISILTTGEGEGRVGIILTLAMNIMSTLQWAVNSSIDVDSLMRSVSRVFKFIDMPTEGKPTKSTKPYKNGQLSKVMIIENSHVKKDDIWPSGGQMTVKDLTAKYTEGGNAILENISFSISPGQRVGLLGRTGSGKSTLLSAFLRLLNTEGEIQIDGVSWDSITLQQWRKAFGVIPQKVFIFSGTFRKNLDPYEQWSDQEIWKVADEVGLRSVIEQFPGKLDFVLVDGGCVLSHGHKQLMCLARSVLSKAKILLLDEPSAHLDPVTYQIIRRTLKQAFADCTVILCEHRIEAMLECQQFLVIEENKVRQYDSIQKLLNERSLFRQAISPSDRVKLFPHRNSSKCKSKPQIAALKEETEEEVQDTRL

Data set [2] deals with T2, Human recombinant PDE4B 1 (Homo sapiens, UniProt Q07343).
T2 construct: purchased BPS Bioscience; host or cells: insect Sf9 cells
T2 sequence (Q07343 whole entry): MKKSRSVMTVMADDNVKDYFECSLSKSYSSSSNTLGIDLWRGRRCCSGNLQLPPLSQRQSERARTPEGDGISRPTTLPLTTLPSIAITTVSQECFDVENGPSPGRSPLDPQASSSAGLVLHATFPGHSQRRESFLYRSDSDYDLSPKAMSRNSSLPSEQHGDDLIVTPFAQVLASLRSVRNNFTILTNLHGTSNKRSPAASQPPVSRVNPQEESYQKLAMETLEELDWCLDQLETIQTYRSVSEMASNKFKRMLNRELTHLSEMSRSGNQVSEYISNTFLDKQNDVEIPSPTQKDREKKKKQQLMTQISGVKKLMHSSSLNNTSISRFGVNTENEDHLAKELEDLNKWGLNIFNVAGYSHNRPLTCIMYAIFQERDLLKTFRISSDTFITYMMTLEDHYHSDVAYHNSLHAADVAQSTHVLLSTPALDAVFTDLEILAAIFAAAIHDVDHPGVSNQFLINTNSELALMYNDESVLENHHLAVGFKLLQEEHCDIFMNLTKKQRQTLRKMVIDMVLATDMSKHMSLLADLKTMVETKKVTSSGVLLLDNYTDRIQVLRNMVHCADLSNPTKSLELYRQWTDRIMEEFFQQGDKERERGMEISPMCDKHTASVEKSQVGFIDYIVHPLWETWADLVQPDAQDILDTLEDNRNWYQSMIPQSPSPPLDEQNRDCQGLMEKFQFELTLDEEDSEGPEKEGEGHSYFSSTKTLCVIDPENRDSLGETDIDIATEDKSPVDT
Briefly: Human phosphodiesterase 4 (PDE4) inhibition, PDE4B 1. The data set is classed as biochemical. The conditions noted are these: read-out: % inhibition range at 10 uM PDE4B1; 10 uM test compound. Here is the method:
(§1) […] Human recombinant PDE4A1A, PDE4B 1, PDE4C1 and PDE4D2 are respectively expressed in each host cell (insect Sf9 cells, BPS Bioscience). Preincubation of 10 μM test compounds or vehicle was proceeded with 20 ng/ml PDE4A1A or 4 ng/ml PDE4B 1 or 8 ng/ml PDE4C1 or 5 ng/ml PDE4D2 enzyme in Tris-HCl buffer pH 7.2 for 15 minutes at 25° C. 100 nM fluorescein (FAM) labeled cAMP for another 30 minutes incubation period was added in order to initiate the enzymatic reaction and addition of IMAP binding solution was followed for its termination. Specifically, IMAP complexes with phosphate groups on nucleotide monophosphate generated from cyclic nucleotides through PDE activity. The amount of complex formed is determined by reading spectrofluorimetrical signal at 470 nm/525 nm.

The target of the next data set is T3, Human recombinant PDE4C1 (Homo sapiens, UniProt Q08493).
T3 construct: purchased BPS Bioscience; host or cells: insect Sf9 cells
T3 sequence (Q08493 whole entry): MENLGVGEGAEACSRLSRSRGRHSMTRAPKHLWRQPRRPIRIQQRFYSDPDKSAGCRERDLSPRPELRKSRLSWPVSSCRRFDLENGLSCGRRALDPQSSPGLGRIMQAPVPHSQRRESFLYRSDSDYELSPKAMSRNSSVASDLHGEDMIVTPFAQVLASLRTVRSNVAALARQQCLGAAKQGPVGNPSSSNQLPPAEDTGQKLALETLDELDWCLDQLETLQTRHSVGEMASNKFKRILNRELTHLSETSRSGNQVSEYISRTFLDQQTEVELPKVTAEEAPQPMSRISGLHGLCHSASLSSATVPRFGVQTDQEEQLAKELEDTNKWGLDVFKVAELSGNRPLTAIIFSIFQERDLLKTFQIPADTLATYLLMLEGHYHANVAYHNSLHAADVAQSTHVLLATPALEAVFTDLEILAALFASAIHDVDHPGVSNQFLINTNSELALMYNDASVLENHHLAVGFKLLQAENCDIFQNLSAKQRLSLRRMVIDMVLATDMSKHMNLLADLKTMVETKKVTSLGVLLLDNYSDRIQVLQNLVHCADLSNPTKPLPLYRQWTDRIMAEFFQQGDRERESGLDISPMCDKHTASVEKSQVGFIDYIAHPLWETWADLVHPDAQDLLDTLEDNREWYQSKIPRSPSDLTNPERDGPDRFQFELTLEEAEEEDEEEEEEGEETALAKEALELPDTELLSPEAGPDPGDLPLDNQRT
Kind of data set: Human phosphodiesterase 4 (PDE4) inhibition, PDE4C1. In kind it is biochemical. As to conditions: read-out: % inhibition range at 10 uM PDE4C1; 10 uM test compound. The protocol:
as §1

For data set [3], the target named is T1, human wild type-CFTR. Briefly: Cell-based YFP assay. On the set-up: expressed in transfected cells; host or cells: CHO-K1 (Chinese hamster ovary). As to conditions: CHO-K1 cells expressing human wild type-CFTR and YFP-H148Q/I152L; forskolin 20 μM = 100% activity; read-out: Cell-based YFP Assay (EC50) Concentration Range. The method, boiled down: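 I⁻-driven YFP fluorescence quenching at 37 °C: 2 s baseline, addition of 140 mM iodide solution, then 14 s of readings at 0.4 s intervals. Cells were CHO-K1 expressing human wild-type CFTR plus YFP-H148Q/I152L. EC50 derived from averaged triplicates.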

Data set [4] has as its target T4, Human recombinant PDE4A1A (Homo sapiens, UniProt P27815).
T4 construct: purchased BPS Bioscience; host or cells: insect Sf9 cells
Kind of data set: Human phosphodiesterase 4 (PDE4) inhibition, PDE4A1A. In kind it is biochemical. As to conditions: read-out: % inhibition range at 10 uM PDE4A1A; 10 uM test compound. The protocol:
as §1

Data set [5] in a line: Phosphate-buffered saline (PBS) solubility of compounds. In kind it is physicochemical. As to conditions: aqueous buffer, thermodynamic from solid, PBS pH 7.5, 0.5 mg/mL, vortexed 90 min, filtered, LC-MS/MS, read-out: Solubility Range. Here is the method:
PBS solutions (pH 7.5) were prepared according to the following compositions and stored at 4° C. Test compounds were dissolved in PBS (pH 7.5) at 0.5 mg/mL and vortexed for 90 min. The PBS solution was sequentially filtered through a 0.45, 1.2, […] syringe filter. Concentration of test compounds were determined using LC-MS/MS with appropriate dilution of the samples.

Another data set addresses T5, Human recombinant PDE4D2 (Homo sapiens, UniProt Q08499).
T5 construct: purchased BPS Bioscience; host or cells: insect Sf9 cells
Kind of data set: Human phosphodiesterase 4 (PDE4) inhibition, PDE4D2. In kind it is biochemical. As to conditions: read-out: % inhibition range at 10 uM PDE4D2; 10 uM test compound. Here is the method: as §1

T5 sequence (Q08499 303-809 limits assumed): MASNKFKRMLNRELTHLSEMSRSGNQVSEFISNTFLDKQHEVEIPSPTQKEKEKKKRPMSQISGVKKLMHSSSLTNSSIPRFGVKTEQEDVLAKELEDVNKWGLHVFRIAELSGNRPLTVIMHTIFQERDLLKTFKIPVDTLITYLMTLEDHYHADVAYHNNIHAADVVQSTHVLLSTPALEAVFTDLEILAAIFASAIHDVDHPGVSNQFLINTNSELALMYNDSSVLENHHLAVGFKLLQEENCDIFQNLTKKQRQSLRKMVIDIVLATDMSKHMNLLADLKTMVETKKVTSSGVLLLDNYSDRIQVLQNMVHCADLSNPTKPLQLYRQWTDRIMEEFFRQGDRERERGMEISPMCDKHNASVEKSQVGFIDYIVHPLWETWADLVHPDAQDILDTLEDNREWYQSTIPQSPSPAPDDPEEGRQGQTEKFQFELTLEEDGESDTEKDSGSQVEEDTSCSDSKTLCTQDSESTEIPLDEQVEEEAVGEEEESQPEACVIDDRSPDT
T4 sequence (P27815 1-647 isoform P27815-4): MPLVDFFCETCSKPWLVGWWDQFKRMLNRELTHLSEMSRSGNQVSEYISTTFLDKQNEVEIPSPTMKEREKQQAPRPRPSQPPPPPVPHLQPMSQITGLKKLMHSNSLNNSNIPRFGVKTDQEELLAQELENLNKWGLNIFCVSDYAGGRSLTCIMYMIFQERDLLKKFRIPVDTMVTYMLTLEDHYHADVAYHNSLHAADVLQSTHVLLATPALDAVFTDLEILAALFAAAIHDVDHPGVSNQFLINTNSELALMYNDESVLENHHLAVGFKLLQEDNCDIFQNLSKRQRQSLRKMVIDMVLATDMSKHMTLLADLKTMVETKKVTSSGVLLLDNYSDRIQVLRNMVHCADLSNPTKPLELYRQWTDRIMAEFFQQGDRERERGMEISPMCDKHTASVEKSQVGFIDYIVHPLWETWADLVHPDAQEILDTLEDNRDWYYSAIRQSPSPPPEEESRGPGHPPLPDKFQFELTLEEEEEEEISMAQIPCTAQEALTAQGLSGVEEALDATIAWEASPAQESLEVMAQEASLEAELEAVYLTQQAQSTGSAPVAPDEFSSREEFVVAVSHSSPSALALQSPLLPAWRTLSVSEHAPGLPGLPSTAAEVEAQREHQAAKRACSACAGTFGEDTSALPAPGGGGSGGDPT

Turning to `COc1ccc(-c2ccnc3cc(C(=O)Nc4ccc(C(=O)N5CCOCC5)cn4)nn23)cc1OC` [Compound 135, 7-(3,4-dimethoxyphenyl)-N-(5-(morpholine-4-carbonyl)pyridin-2-yl) pyrazolo[1,5-a] pyrimidine-2-carboxamide], the EC50 at human wild type-CFTR [1] and at human wild type-CFTR [3] was less than 200 nM each time. Also, the inhibition at 10 µM (in data set [2]; at Human recombinant PDE4C1; in data set [4]; at Human recombinant PDE4D2) was greater than 80% throughout. Moreover, the solubility at 90 min in data set [5] was less than 0.1 µg/mL.

For `COc1ccc(-c2ccnc3cc(C(=O)N4CCN(C(=O)c5ccccc5)[C@@H](C)C4)nn23)cc1OC` [Compound 210, (S)-(4-benzoyl-3-methylpiperazin-1-yl)(7-(3,4-dimethoxyphenyl)pyrazolo[1,5-a]pyrimidin-2-yl)methanone], the inhibition at 10 µM (in data set [2]; on Human recombinant PDE4C1; in data set [4]; on Human recombinant PDE4D2) was greater than 80% each time. For the same compound, in data set [5], the solubility at 90 min fell in the range of 0.1 to 10 µg/mL (≈ 0.206 to 20.6 µM).

As to `CCOc1ccc(NC(=O)c2cc3nccc(-c4ccc(OC)nc4)n3n2)cc1` [Compound 323, N-(4-ethoxyphenyl)-7-(6-methoxypyridin-3-yl) pyrazolo[1,5-a]pyrimidine-2-carboxamide], the inhibition at 10 µM in data set [2] is 50 to 80%; at Human recombinant PDE4C1, less than 50%; in data set [4], less than 50%; on Human recombinant PDE4D2, less than 50%. For the same compound, on human wild type-CFTR [3], the EC50 is no less than 2000 nM.

As for `COc1ccc(-c2ccnc3cc(NC(=O)Nc4ccc(C(=O)N5CCOCC5)cc4)nn23)cc1OC` [Compound 129, 1-(7-(3,4-dimethoxyphenyl)pyrazolo[1,5-a]pyrimidin-2-yl)-3-(4-(morpholine-4-carbonyl)phenyl)urea], the EC50 on human wild type-CFTR [1] is no less than 2000 nM; at human wild type-CFTR [3] it was 200 to 2000 nM. For the same compound, the inhibition at 10 µM (in data set [2]; at Human recombinant PDE4C1; in data set [4]; at Human recombinant PDE4D2) was greater than 80% in each case.

Take `COC(=O)c1ccc(NC(=O)c2cc3nccc(-c4ccc(OC)c(OC)c4)n3n2)c(F)c1` [Compound 136, methyl 4-(7-(3,4-dimethoxyphenyl)pyrazolo[1,5-a]pyrimidine-2-carboxamido)-3-fluorobenzoate]: the inhibition at 10 µM (in data set [2]; at Human recombinant PDE4C1; in data set [4]; at Human recombinant PDE4D2) was greater than 80% each time. In addition, the solubility at 90 min in data set [5] is less than 0.1 µg/mL.

Turning to `COc1ccc(-c2ccnc3cc(C(=O)N4CCN(S(=O)(=O)c5ccccc5)[C@@H](C)C4)nn23)cc1OC` [Compound 355, (S)-(7-(3,4-dimethoxy-phenyl)pyrazolo[1,5-a]pyrimidin-2-yl)(3-methyl-4-(phenylsulfonyl)piperazin-1-yl)methanone], the inhibition at 10 µM (in data set [2]; at Human recombinant PDE4C1; in data set [4]; at Human recombinant PDE4D2) was greater than 80% in each case. Moreover, at human wild type-CFTR [3], the EC50 was less than 200 nM.

On to `COC(=O)c1ccc(NC(=O)c2cc3nccc(-c4ccc(OC)c(OC)c4)n3n2)cc1OC` [Compound 192, methyl 4-(7-(3,4-dimethoxyphenyl)pyrazolo [1,5-a]pyrimidine-2-carboxamido)-2-methoxybenzoate], for which the inhibition at 10 µM (in data set [2]; at Human recombinant PDE4C1; in data set [4]; on Human recombinant PDE4D2) was greater than 80% throughout. The EC50 on human wild type-CFTR [3] is less than 200 nM.

As for `COc1ccc(-c2ccnc3cc(C(=O)N[C@H]4CC[C@H](C(=O)OC)CC4)nn23)cc1OC` [Compound 10, methyl (1r,4r)-4-(7-(3,4-dimethoxyphenyl)pyrazolo[1,5-a]pyrimidine-2-carboxamido)cyclohexane-1-carboxylate], the inhibition at 10 µM (in data set [2]; on Human recombinant PDE4C1; in data set [4]; at Human recombinant PDE4D2) was greater than 80% throughout. The solubility at 90 min in data set [5] was 0.1 to 10 µg/mL (≈ 0.228 to 22.8 µM).

`COc1ccc(-c2ccnc3cc(C(=O)N4CC[C@@H](NC(=O)c5ccccc5)C4)nn23)cc1OC` [Compound 384, (R)-N-(1-(7-(3,4-dimethoxyphenyl)pyrazolo[1,5-a]pyrimidine-2-carbonyl)pyrrolidin-3-yl)benzamide]: the inhibition at 10 µM in data set [2] was greater than 80%; on Human recombinant PDE4C1 it was 50 to 80%; in data set [4] it was greater than 80%; at Human recombinant PDE4D2 it was greater than 80%. Moreover, the EC50 on human wild type-CFTR [3] is less than 200 nM.

Consider `COc1ccc(-c2ccnc3cc(C(=O)Nc4ccc(C(=O)N5CCOCC5)cc4)nn23)cc1OC` [Compound 41, 7-(3,4-dimethoxyphenyl)-N-(4-(morpholine-4-carbonyl)phenyl)pyrazolo [1,5-a]pyrimidine-2-carboxamide], for which the inhibition at 10 µM (in data set [2]; on Human recombinant PDE4C1; in data set [4]; on Human recombinant PDE4D2) was greater than 80% in each case. Besides, in data set [5], the solubility at 90 min is less than 0.1 µg/mL.

Regarding `COc1ccc(-c2ccnc3cc(C(=O)N4CCN(C(=O)c5cccs5)[C@@H](C)C4)nn23)cc1OC` [Compound 352, (S)-(7-(3,4-dimethoxyphenyl)pyrazolo[1,5-a]pyrimidin-2-yl)(3-methyl-4-(thiophene-2-carbonyl)piperazin-1-yl) methanone], the inhibition at 10 µM (in data set [2]; on Human recombinant PDE4C1; in data set [4]; at Human recombinant PDE4D2) was greater than 80% in each case. In addition, the EC50 on human wild type-CFTR [3] was less than 200 nM.

Consider `COc1ccc(-c2ccnc3cc(C(=O)Nc4ccc(N5CCOCC5)cc4)nn23)cc1OC` [Compound 194, 7-(3,4-dimethoxyphenyl)-N-(4-morpholinophenyl)pyrazolo [1,5-a]pyrimidine-2-carboxamide], for which the inhibition at 10 µM (in data set [2]; at Human recombinant PDE4C1; in data set [4]; at Human recombinant PDE4D2) was greater than 80% in each case. In addition, the EC50 at human wild type-CFTR [3] is less than 200 nM.

For the compound `COc1ccc(-c2ccnc3cc(C(=O)Nc4ccc(OCCN5CCOCC5)cc4)nn23)cc1OC` [Compound 198, 7-(3,4-dimethoxyphenyl)-N-(4-(2-morpholinoethoxy)phenyl)pyrazolo[1,5-a]pyrimidine-2-carboxamide], the EC50 on human wild type-CFTR [1] and at human wild type-CFTR [3] was less than 200 nM in each case. Further, the inhibition at 10 µM (in data set [2]; on Human recombinant PDE4C1; in data set [4]; at Human recombinant PDE4D2) was greater than 80% each time.

On to `COC(=O)c1ccccc1NC(=O)c1cc2nccc(-c3ccc(OC)c(OC)c3)n2n1` [Compound 7, methyl 2-(7-(3,4-dimethoxyphenyl)pyrazolo [1,5-a]pyrimidine-2-carboxamido)benzoate], for which the inhibition at 10 µM (in data set [2]; at Human recombinant PDE4C1; in data set [4]; at Human recombinant PDE4D2) was less than 50% in each case. Further, in data set [5], the solubility at 90 min was less than 0.1 µg/mL.

Consider `COc1ccc(-c2ccnc3cc(C(=O)N4CCN(C(=O)c5ccccn5)[C@@H](C)C4)nn23)cc1OC` [Compound 380, (S)-(7-(3,4-dimethoxyphenyl)pyrazolo[1,5-a]pyrimidin-2-yl) (3-methyl-4-picolinoylpiperazin-1-yl)methanone], for which the inhibition at 10 µM is greater than 80% in data set [2], 50 to 80% at Human recombinant PDE4C1, greater than 80% in data set [4] and greater than 80% on Human recombinant PDE4D2. On human wild type-CFTR [3], the EC50 was less than 200 nM.

The record behind these values is US20240199623A1 (ILDONG PHARMACEUTICAL CO., LTD., priority 2020, published 2024).
